From US4123546A, “Antidepressant compounds” (E. I. Du Pont de Nemours and Company, priority 1977, dated 1978)
Structures can show the parent of a compound that is named as a salt. Where two headings read alike, the source gives them in different places.

Columns and labels:
[1] = test system: tetrabenazine-induced depression; test: prevention of tetrabenazine-induced sedation and depression in mice (exploratory activity and ptosis); type: in vivo, Carworth CF1 S female mice; conditions: for ED50: Mus musculus, po; for ED50 Ptosis / ED50 Exploratory: 60 min
Description: A standard procedure for detecting and comparing the antidepressant activity of compounds in this series for which there is good correlation with human efficacy is the prevention of tetrabenazine-induced sedation and depression in mice. (Everett, "The Dopa Response Potentiation Test and Its Use in Screening for Antidepressant Drugs", pp. 164-167 in "Antidepressant Drugs" [Proceedings of the First International Symposium], S. Garattini and M. N. G. Dukes, eds., 1967.).
Groups of 10 Carworth CF1 S female mice, 18-21 g. each, were fasted 1.5 hours and were intubated with antagonist compounds at oral doses of 0, 5, 25, and 125 mg/kg or 0, 1, 3, 9, 27, and 81 mg/kg in 0.20 ml. of 1% Methocel (methylcellulose) 1.25% Tween 80. The mice were challenged 30 minutes later with tetrabenazine (as the methane-sulfonate), 32 mg/kg intraperitoneally (dissolved in 0.20 ml. 0.05M KCl at pH 2.0). One hour after antagonist (30 minutes after tetrabenazine), the mice were examined for signs of exploratory activity and ptosis (eyelid closure). Normal exploratory activity (relief from sedation) was recorded when a mouse lifted by the tail from a group of 10 in a testing box and placed on a stainless steel testing box lid (12.5" × 8" with 0.33" mesh) either turned its head horizontally 30° in both direction or moved to the edge of the screen within 10 seconds after being placed on the screen. Relief from ptosis was recorded when exactly 2 seconds after placing the mouse facing the observer, lid closure was less than 50% in both eyes.
For comparison, the marketed antidepressant Amitriptyline was also tested, and an ED50 (effective dose in 50% of the cases) was determined. The lower the ED50, the better the antidepressant.

monoamine oxidase (MAO) = test: tryptamine potentiation in mice (monoamine oxidase inhibition); type: in vivo
Description: (§1) An antidepressant which acts by inhibiting MAO is not acceptable.

[2] = test system: hexabarbitol potentiation; test: hexabarbitol potentiation in mice (sedative qualities); type: in vivo
Description: as §1

[3] = Table I, orally, 1 hour post-drug, tetrabenazine 32 mg/kg i.p. 30 min after drug, relief from ptosis
[4] = Table I, orally, 1 hour post-drug, tetrabenazine 32 mg/kg i.p. 30 min after drug, relief from sedation (exploratory activity)
[5] = Table II (formula II compounds), orally, 1 hour post-drug, relief from ptosis, read-out: ED50 Ptosis
[6] = Table II (formula II compounds), orally, 1 hour post-drug, relief from sedation (exploratory activity), read-out: ED50 Exploratory

Row | Compound | ED50 Ptosis [1, 3] [mg/kg] | ED50 Exploratory [1, 4] [mg/kg] | ED50 [1, 5] [mg/kg] | ED50 [1, 6] [mg/kg] | further results
1 | CN(C)CCC=C1c2ccccc2CCc2ccccc21 [Amitriptylene . HCl, reference compound] |  |  |  |  | ED50 ([1]; Table I, orally, 1 hour post-drug, tetrabenazine 32 mg/kg i.p. 30 min after drug, relief from ptosis, read-out: ED50 Ptosis): 1.5 mg/kg; ED50 ([1]; Table I, orally, 1 hour post-drug, tetrabenazine 32 mg/kg i.p. 30 min after drug, relief from sedation (exploratory activity), read-out: ED50 Exploratory): 3.7 mg/kg
2 | CN(C)CCCOC12c3ccccc3C3C(c4ccccc41)N32 (stereo not drawn) [CH2 CH2 CH2 N(CH3)2, 3-[(4b, 4c-Dihydro-8bH-azirino[2,1,3-cd]dibenzo[a,f]-pyrrolizin-8b-yl)oxy]propyl-N,N-dimethylamine] |  |  |  |  | ED50 ([1]; 1 h, read-out: ED50 Exploratory, Table I, orally, 1 hour post-drug, tetrabenazine 32 mg/kg i.p. 30 min after drug, relief from sedation (exploratory activity)): 67 mg/kg; ED50 ([1]; 1 h, read-out: ED50 Ptosis, Table I, orally, 1 hour post-drug, tetrabenazine 32 mg/kg i.p. 30 min after drug, relief from ptosis): 56 mg/kg
3 | CN(C)CCOC12c3ccccc3C3C(c4ccccc41)N32 (stereo not drawn) [CH2 CH2 N(CH3)2 . Maleate, 2-[4b, 4c-Dihydro-8bH-azirino[2,1,3-cd]dibenzo[a,f]pyrrolizin-8b-yl)oxy]ethyl-N,N-dimethylamine Maleate] | 8 | 9 |  |  | 
4 | CN(C)CCOC12NC(c3ccccc31)C(Cl)c1ccccc12 (stereo not drawn) [CH2 CH2 N(CH3)2 H Cl, 10,11-Dihydro-5,10-imino-5-[2-(N,N-dimethylamino)-ethoxy]-11-chloro-5H-dibenzo[a,d]cycloheptene] |  |  | 15 | 25 | 
5 | CN(C)CCOC12NC(Cc3ccccc31)c1ccccc12 (stereo not drawn) [CH2 CH2 N(CH3)2 H H, 10,11-Dihydro-5,10-imino-5-[2-(N,N-dimethylamino)-ethoxy]-5H-dibenzo[a,d]cycloheptene] |  |  | 15 | 15 | 
6 | CN(C)CCOC12c3ccccc3C3C(c4ccccc41)N32 (stereo not drawn) [CH2 CH2 N(CH3)2, 2-[(4b, 4c-Dihydro-8bH-azirino[2,1,3-cd]dibenzo[a,f]pyrrolizin-8b-yl)oxy]ethyl-N,N-dimethylamine] | 2 | 2 |  |  | monoamine oxidase (MAO) inhibition (monoamine oxidase (MAO); implied by lack of tryptamine potentiation in mice): not a monoamine oxidase (MAO) inhibitor; potentiation of tryptamine (monoamine oxidase (MAO); in mice): not to potentiate tryptamine in mice; sedative qualities ([2]; implied by hexabarbitol potentiation in mice, at high doses): sedative qualities at high doses; potentiation of hexabarbitol ([2]; in mice): potentiates hexabarbitol in mice
7 | NCCOC12c3ccccc3C3C(c4ccccc41)N32 (stereo not drawn) [CH2 CH2 NH2 . Maleate] | 10.3 | 11.8 |  |  | 
8 | NCCOC12c3ccccc3C3C(c4ccccc41)N32 (stereo not drawn) [CH2 CH2 NH2 . Tartate] | 2.7 | 3.3 |  |  | 
9 | NCCOC12NC(c3ccccc31)C(Cl)c1ccccc12 (stereo not drawn) [CH2 CH2 NH2 H Cl, 10,11-Dihydro-5,10-imino-5-(2-aminoethoxy)-11-chloro-5H-dibenzo[a,d]cycloheptene] |  |  | 37 | 37 | 
10 | NCCOC12c3ccccc3C3C(c4ccccc41)N32 (stereo not drawn) [CH2 CH2 NH2] | 1 | 2 |  |  | 
